Test results reported in patent US10308652B2, “Tricyclic heterocyclic compounds useful as inhibitors of TNF” (BRISTOL-MYERS SQUIBB COMPANY, priority 2015, dated 2019).
pIC50: −log10 of the molar value.

Biological target: TNFα (Homo sapiens (Human), UniProt P01375)
Assay: TNF induced HEK-Blue assay
Format: cell-based
Conditions: TNFα 0.5 ng/ml; HEK-Blue-CD40L cells, NF-κB-driven secreted alkaline phosphatase reporter; 18 h
Procedure: TNF or CD40L-induced HEK-Blue Assay Test compounds serially diluted in DMSO were plated in an assay plate (Labcyte, Cat. #LP-0200) at final concentrations ranging from 0.004 μM to 25μM. TNFα (final concentration 0.5 ng/ml) or CD4OL (final concentration 30 ng/ml) in assay buffer [DMEM, 4.5 g/l glucose (Gibco, Cat. 21063-029), 10% FBS (Sigma, F4135), 1% Penicillin-Streptomycin (Gibco, Cat. 15140-122), 1% Anti-Anti (Gibco, Cat. 15240-112) and 2 mM L-glutamine (Gibco, Cat. 25030-081)] was then added to the assay plate. After a 30 minute pre-incubation at 37° C. and 5% CO2, HEK-Blue-CD40L cells (InvivoGen, Cat. Code hkb-cd40) containing a NF-κB-driven secreted alkaline phosphatase reporter gene were seeded into the assay plate at a density of 20,000 cells per well. This plate was then incubated for 18 h at 37° C. and 5% CO2. Secreted alkaline phosphatase expression was measured using QUANTI-Blue (InvivoGen, Cat. Code rep-qb1) according to manufacturer's specifications and the assay plate was read on a PerkinElmer Envision at 620 nm. Inhibition data for the test compound over a range of concentrations was plotted as percentage inhibition of the test compound (100%=maximum inhibition). IC50 values were determined after correcting for background [(sample read−mean of low control)/(mean of high control−mean of low control)] where by the low control is DMSO without stimulation and high control is DMSO with stimulation. The IC50 is defined as the concentration of test compound which produces 50% inhibition and was quantified using the 4 parameter logistic equation to fit the data.

Chain of TNFα (P01375 77-233): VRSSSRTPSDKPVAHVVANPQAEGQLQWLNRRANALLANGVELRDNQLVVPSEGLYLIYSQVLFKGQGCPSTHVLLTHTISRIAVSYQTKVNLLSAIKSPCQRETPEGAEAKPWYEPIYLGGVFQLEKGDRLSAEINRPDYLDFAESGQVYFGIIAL

Row | pIC50 | Compound
1 | 5.00 to 6.00 | CC(C)(O)c1ccc(-c2ccc3nc4c(n3n2)[C@H](c2ccccc2OC(F)F)NC[C@H]4F)cc1 (racemic) [Example 9, (+/−)-trans-2-(4-(9-(2-(difluoromethoxy)phenyl)-6-fluoro-6,7,8,9-tetrahydropyrido[4′,3′:4,5]imidazo[1,2-b]pyridazin-2-yl)phenyl)propan-2-ol]
2 | 4.60 to 5.00 | NC(=O)c1ccc(-c2ccc3nc4c(n3n2)[C@@H](c2ccccc2OC(F)F)NC[C@H]4O)cc1Cl (racemic) [Example 48, (+/−)-cis-2-chloro-4-(9-(2-(difluoromethoxy)phenyl)-6-hydroxy-6,7,8,9-tetrahydropyrido[4′,3′:4,5]imidazo[1,2-b]pyridazin-2-yl)benzamide]
3 | 5.00 to 6.00 | COc1ccc(Cl)cc1[C@@H]1NC[C@@H](O)c2nc3ccc(-c4ccc(C(C)(C)O)cc4)nn3c21 (racemic) [Example 56, (+/−)-trans-9-(5-chloro-2-methoxyphenyl)-2-(4-(2-hydroxypropan-2-yl)phenyl)-6,7,8,9-tetrahydropyrido[4′,3′:4,5]imidazo[1,2-b]pyridazin-6-ol]
4 | 5.00 to 6.00 | CC(C)(O)COc1ccc(-c2ccc3nc4c(n3n2)[C@@H](c2ccccc2OC(F)F)NC[C@H]4O)cc1 (racemic) [Example 29, (+/−)-cis-9-(2-(difluoromethoxy)phenyl)-2-(4-(2-hydroxy-2-methylpropoxy)phenyl)-6,7,8,9-tetrahydropyrido[4′,3′:4,5]imidazo[1,2-b]pyridazin-6-ol]
5 | > 6.00 | CC(C)(O)c1ccc(-c2ccc3nc4c(n3n2)C(c2ccccc2OC(F)F)NCC4F)cc1 [Example 12, cis-(1S,4S)-2-(4-(9-(2-(difluoromethoxy)phenyl)-6-fluoro-6,7,8,9-tetrahydropyrido[4′,3′:4,5]imidazo[1,2-b]pyridazin-2-yl)phenyl) propan-2-ol]
6 | 4.60 to 5.00 | COC1CN(C(=O)c2ccc(-c3ccc4nc5c(n4n3)C(c3ccccc3OC(F)F)NCC5O)cc2)C1 (stereo not shown) [Example 18, (4-(9-(2-(difluoromethoxy)phenyl)-6-hydroxy-6,7,8,9-tetrahydropyrido[4′,3′:4,5]imidazo[1,2-b]pyridazin-2-yl)phenyl)(3-methoxyazetidin-1-yl)methanone]
7 | 4.60 to 5.00 | COc1ccc(-c2ccc3nc4c(n3n2)[C@H](c2ccccc2OC(F)F)NC[C@H]4O)cn1 (racemic) [Example 51, (+/−)-trans-9-(2-(difluoromethoxy)phenyl)-2-(6-methoxypyridin-3-yl)-6,7,8,9-tetrahydropyrido[4′,3′:4,5]imidazo[1,2-b]pyridazin-6-ol]
8 | > 6.00 | CC(C)(O)c1ccc(-c2ccc3nc4c(n3n2)[C@H](c2ccccc2OC(F)F)NC[C@@H]4O)cc1 (racemic) [Example 4, (+/−)-cis-9-(2-(difluoromethoxy)phenyl)-2-(4-(2-hydroxypropan-2-yl)phenyl)-6,7,8,9-tetrahydropyrido[4′,3′:4,5]imidazo[1,2-b]pyridazin-6-ol]
9 | 4.60 to 5.00 | O=C(NC1CC1)c1ccc(-c2ccc3nc4c(n3n2)C(c2ccccc2OC(F)F)NCC4O)cc1 (stereo not shown) [Example 20, N-cyclopropyl-4-(9-(2-(difluoromethoxy)phenyl)-6-hydroxy-6,7,8,9-tetrahydropyrido[4′,3′:4,5]imidazo[1,2-b]pyridazin-2-yl)benzamide]
10 | 5.00 to 6.00 | CC(C)(O)c1ccc(-c2ccc3nc4c(n3n2)[C@@H](c2cc(Cl)ccc2OC(F)F)NC[C@H]4O)cc1 (racemic) [Example 54, (+/−)-cis-9-(5-chloro-2-(difluoromethoxy)phenyl)-2-(4-(2-hydroxypropan-2-yl)phenyl)-6,7,8,9-tetrahydropyrido[4′,3′:4,5]imidazo[1,2-b]pyridazin-6-ol]
11 | 5.00 to 6.00 | O=C(O)CN1CCN(c2ncc(-c3ccc4nc5c(n4n3)C(c3ccccc3OC(F)F)NCC5O)cn2)CC1 (stereo not shown) [Example 22, 2-(4-(5-(9-(2-(difluoromethoxy)phenyl)-6-hydroxy-6,7,8,9-tetrahydropyrido [4′,3′:4,5]imidazo[1,2-b]pyridazin-2-yl)pyrimidin-2-yl)piperazin-1-yl)acetic acid]
12 | 5.00 to 6.00 | NS(=O)(=O)c1ccc(-c2ccc3nc4c(n3n2)[C@@H](c2ccccc2OC(F)F)NC[C@H]4O)cc1 (racemic) [Example 46, (+/−)-cis-4-(9-(2-(difluoromethoxy)phenyl)-6-hydroxy-6,7,8,9-tetrahydropyrido[4′,3′:4,5]imidazo[1,2-b]pyridazin-2-yl)benzenesulfonamide]
13 | 4.60 to 5.00 | COc1ccc(-c2ccc3nc4c(n3n2)[C@@H](c2ccccc2OC(F)F)NC[C@H]4F)cn1 (racemic) [Example 11, (+/−)-cis-9-(2-(difluoromethoxy)phenyl)-6-fluoro-2-(6-methoxypyridin-3-yl)-6,7,8,9-tetrahydropyrido [4′,3′:4,5]imidazo[1,2-b]pyridazine]
14 | > 6.00 | CC(C)(O)c1ccc(-c2ccc3nc4c(n3n2)C(c2ccccc2OC(F)F)NCC4)cc1 (racemic) [Example 2, (+/−)-2-(4-(9-(2-(Difluoromethoxy)phenyl)-6,7,8,9-tetrahydropyrido [4′,3′:4,5]imidazo[1,2-b]pyridazin-2-yl)phenyl)propan-2-ol]
15 | 5.00 to 6.00 | CC(C)(O)c1ncc(-c2ccc3nc4c(n3n2)[C@@H](c2ccccc2OC(F)F)NC[C@H]4F)cn1 (racemic) [Example 10, (+/−)-cis-2-(5-(9-(2-(difluoromethoxy)phenyl)-6-fluoro-6,7,8,9-tetrahydropyrido [4′,3′:4,5]imidazo[1,2-b]pyridazin-2-yl)pyrimidin-2-yl)propan-2-ol]
16 | 5.00 to 6.00 | CC(C)Oc1ccc(-c2ccc3nc4c(n3n2)[C@@H](c2ccccc2OC(F)F)NC[C@H]4O)cc1 (racemic) [Example 32, (+/−)-cis-9-(2-(difluoromethoxy)phenyl)-2-(4-isopropoxyphenyl)-6,7,8,9-tetrahydropyrido[4′,3′:4,5]imidazo[1,2-b]pyridazin-6-ol]
17 | 4.60 to 5.00 | CC(C)(O)c1ncc(-c2ccc3nc4c(n3n2)[C@H](c2ccccc2OC(F)F)OC[C@@H]4O)cn1 (relative stereo) [Example 61, Cis-9-(2-(difluoromethoxy)phenyl)-2-(2-(2-hydroxypropan-2-yl)pyrimidin-5-yl)-6,9-dihydro-7H-pyrano[4′,3′:4,5]imidazo[1,2-b]pyridazin-6-ol]
18 | > 6.00 | COc1ccc(-c2ccc3nc4c(n3n2)C(c2ccccc2OC(F)F)NCC4)cn1 (racemic) [Example 1, (+/−)-9-(2-(Difluoromethoxy)phenyl)-2-(6-methoxypyridin-3-yl)-6,7,8,9-tetrahydropyrido[4′,3′:4,5]imidazo[1,2-b]pyridazine]
19 | 5.00 to 6.00 | COc1cc(-c2ccc3nc4c(n3n2)[C@@H](c2ccccc2OC(F)F)NC[C@H]4O)ccc1OCC(C)(C)O (racemic) [Example 30, (+/−)-cis-9-(2-(difluoromethoxy)phenyl)-2-(4-(2-hydroxy-2-methylpropoxy)-3-methoxyphenyl)-6,7,8,9-tetrahydropyrido[4′,3′:4,5]imidazo[1,2-b]pyridazin-6-ol]
20 | 5.00 to 6.00 | COc1cc(F)ccc1[C@@H]1NC[C@@H](O)c2nc3ccc(-c4ccc(C(C)(C)O)cc4)nn3c21 (racemic) [Example 23, (+/−)-trans-9-(4-fluoro-2-methoxyphenyl)-2-(4-(2-hydroxypropan-2-yl)phenyl)-6,7,8,9-tetrahydropyrido[4′,3′:4,5]imidazo[1,2-b]pyridazin-6-ol]
21 | 5.00 to 6.00 | (+/−)-cis-9-(4-fluoro-2-methylphenyl)-2-(4-(2-hydroxypropan-2-yl)phenyl)-6,7,8,9-tetrahydropyrido [4′,3′:4,5]imidazo[1,2-b]pyridazin-6-ol [Example 43]
22 | 5.00 to 6.00 | CC(C)(O)c1ccc(-c2ccc3nc4c(n3n2)C(c2ccccc2OC(F)F)OCC4(C)O)cc1 (stereo not shown) [Example 59, 9-(2-(Difluoromethoxy)phenyl)-2-(4-(2-hydroxypropan-2-yl)phenyl)-6-methyl-6,9-dihydro-7H-pyrano[4′,3′:4,5]imidazo[1,2-b]pyridazin-6-ol]
23 | 5.00 to 6.00 | CNS(=O)(=O)c1ccc(-c2ccc3nc4c(n3n2)[C@@H](c2ccccc2OC(F)F)NC[C@H]4O)cc1 (racemic) [Example 40, (+/−)-cis-4-(9-(2-(difluoromethoxy)phenyl)-6-hydroxy-6,7,8,9-tetrahydropyrido[4′,3′:4,5]imidazo[1,2-b]pyridazin-2-yl)-N-methylbenzenesulfonamide]
24 | > 6.00 | (+/−)-trans-9-(4-fluoro-2-methylphenyl)-2-(4-(2-hydroxypropan-2-yl)phenyl)-6,7,8,9-tetrahydropyrido[4′,3′:4,5]imidazo[1,2-b]pyridazin-6-ol [Example 44]

Row | Compound | pIC50
25 | (+/−)-trans-9-(2,5-dimethylphenyl)-2-(4-(2-hydroxypropan-2-yl)phenyl)-6,7,8,9-tetrahydropyrido[4′,3′:4,5]imidazo[1,2-b]pyridazin-6-ol [Example 53] | 5.00 to 6.00
